This passage reports TGI and GI50 results from PubChem BioAssay (NCI).

Experiment in all cases: NCI tumour cell line growth inhibition, 48 h
In experiment [1] the test system is DLD-1 colon.
The subject of experiment [2] is DMS 273 small cell lung.
Experiment [3] deals with HOP-18 NSCLC.
For experiment [4], the system named is KM20L2 colon.
The subject of experiment [5] is LXFL 529 NSCLC.
The test system of experiment [6] is M19-MEL melanoma.
Experiment [7] relates to RXF-631 renal.
Experiment [8] deals with SNB-78 CNS.
In experiment [9] the test system is P388 leukemia.
The test system of experiment [10] is P388/ADR leukemia.
Experiment [11] has as its system SN12K1 renal.
In experiment [12] the test system is XF 498 CNS.

SMILES strings stand for the structures.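 Compound exposure: 48 hours, 5 concentrations, 96-well plates. Here, GI50 denotes the concentration required for 50% inhibition of growth. At the TGI there is no net growth.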

As to `COc1ccc(/C(Cl)=C(\C=O)c2ccc(OC)cc2)cc1`, the TGI in experiment [1], in experiment [2], in experiment [3], in experiment [4], in experiment [5] and in experiment [6] was > 100 µM in each case. The TGI in experiment [7] and in experiment [8] was > 100 µM each time.
Turning to `COc1cc(/C=C/C(=O)Oc2ccc(NC(C)=O)cc2)ccc1C(=O)O/C=C/c1ccccc1`, the TGI in [1], in [2], in experiment [3], in experiment [4], in [6] and in experiment [9] was > 100 µM in each case. Moreover, the TGI in experiment [10], in experiment [11], in experiment [8] and in experiment [12] was > 100 µM each time.
Regarding `N=C1C(=N)c2ccccc2-c2ccccc21.N=C1C(=N)c2ccccc2-c2ccccc21.N=C1C(=N)c2ccccc2-c2ccccc21.[Cl-].[Ru+2]`, the GI50 is 2.15 µM in experiment [2]; 3.14 µM in experiment [3]; 5.37 µM in experiment [4]; 1.61 µM in [5]; 1.46 µM in experiment [6]; 1.65 µM in [8]. Further, the TGI in experiment [2] came out at 5.45 µM; in experiment [3], 7.76 µM; in [4], 13.2 µM; in experiment [5] it was 3.08 µM; in [6] it was 2.86 µM; in experiment [8], 3.88 µM.
In the case of `CN(C)C(=O)/C=C/c1c[nH]c(=O)[nH]c1=O`, the TGI was > 500 µM in experiment [1]; > 500 µM in experiment [2]; > 500 µM in [3]; > 500 µM in experiment [4]; > 281 µM in experiment [9]; > 281 µM in [10]. Further, in experiment [11], the TGI was > 500 µM.
Regarding `COc1ccc2c(c1)CCCN2CCCCCCCCCCN(CCC(C)C)CCC(C)C`, the TGI in experiment [1] was determined as 22.6 µM; in experiment [2], 23.2 µM; in experiment [3], 24.7 µM; in [4], 23.1 µM; in experiment [5], 21.8 µM; in experiment [6], 30.7 µM. The figures for the TGI in [7], in experiment [8] and in [12] were 27.3 µM, 38.1 µM and 20.9 µM, respectively.
Take `O=C(Nc1ccc([N+](=O)[O-])cc1[N+](=O)[O-])C(=O)C(C(=O)c1ccc2ccccc2c1)C1OC(=O)c2ccccc21` (stereo unspecified): the TGI in experiment [1] came out at 81.4 µM; in experiment [2], 61.4 µM; in experiment [4], 61.9 µM; in experiment [5], 26 µM; in [6], 29.6 µM; in [7], 66.3 µM. For the same compound, the TGI in [8] is 82.5 µM.
As to `Nc1n[nH]c(=O)c2c1c(I)cn2C1OC(CO)C(O)C1O` (stereo unspecified), the TGI in [1] is > 100 µM; in [2], 2.63 µM; in [3] it was > 100 µM; in experiment [4], > 100 µM; in [5], > 100 µM; in experiment [7] it was 7.36 µM. The results for the TGI in experiment [8] and in experiment [12] were 6.8 µM and 8.3 µM, respectively.
Turning to `CN(C)CCNC(=O)c1cccc2ccc(-c3ccc(F)cc3)nc12`, the TGI in experiment [1] worked out at 17.9 µM; in experiment [2], 11.8 µM; in experiment [3], 54.1 µM; in experiment [4] it was 20.4 µM; in [6], 15.9 µM; in [9], 3.66 µM. For the same compound, the TGI in experiment [10] turned out to be 5.17 µM; in [11] it was 12.2 µM; in experiment [8], 31.4 µM; in experiment [12], 10.2 µM.
